Reference: patent publication US11800867B2, “Methods of repelling biting arthropods, reducing pathogen spread and treating arthropod infestation” (priority 2016, dated 2023)
“And” between values parts separate entries of the source, which are not always exact repeats. Identical values can stand only once.

Columns and labels:
Experiment in all cases: Treated filter paper knockdown (KD) and mortality trial (Example 4)
Type in all cases: in vivo
[1] = system: biting midges (Culicoides sp.); settings: Nootkatone 1% in ethanol on filter paper
Method: (§1) A laboratory trial was conducted to assess the efficacy of nootkatone applied to filter paper against aphids (Schizaphis gramium), dust mites (Dermatophagoides sp.), termites (Reticulitermes flavipes), deer ticks (Ixodes scapularis), biting midges (Culicoides sp.), fire ants (Solenopsis invicta), and mosquitoes (Aedes aegypti and Culex), in terms of knockdown (KD) and mortality. One concentration (1% in ethanol) of nootkatone was assessed for most species, but three concentrations (0.25%, 0.5%, and 1% in ethanol) were assessed for mosquitoes. A negative control group, consisting of filter paper treated with ethanol, was also assessed for comparison purposes for each species.
(§2) Test systems were introduced to treated filter paper, allowed to dry, and then introduced into treatment chamber, where treated arthropods were monitored at intervals up to 72 hours. If 100% mortality was obtained prior to 72 hours, the individual study was halted.
(§3) Midges and mosquitoes—5 replicates of 10 insects per treatment were tested. Inverted 10 ounce (295 ml) clear plastic cups with a 0.5 inch (1.27 cm) hole burned into the center of the bottom, and with the sides coated with Fluon® was used at the treatment containers. The bottoms of the containers consisted of Petri dish lids 3.54 inches (9.0 cm) in diameter lined with a treated filter paper circle the same diameter. The cup was placed over the filter paper in the lid and both were secured in place using 2 rubber bands. The insects were introduced through the hole in the cup, and a plastic disc was placed over the opening to prevent escapes.
(§4) Readings were discontinued if treated mortality reaches […], or control mortality exceeds 20%.

[2] = system: Yellow Fever mosquito (Aedes aegypti)
Method: as §1, §2, §3, §4

[3] = system: Southern house mosquito (Culex)
Method: as §1, §2, §3, §4

[4] = Nootkatone 0.25% in ethanol on filter paper, 30 minutes post introduction
[5] = Nootkatone 0.25% in ethanol on filter paper, 1 hour post introduction
[6] = Nootkatone 0.25% in ethanol on filter paper, 4 hours post introduction
[7] = Nootkatone 0.25% in ethanol on filter paper, 8 hours post introduction
[8] = Nootkatone 0.25% in ethanol on filter paper, 24 hours post introduction
[9] = Nootkatone 0.25% in ethanol on filter paper, 48 hours post introduction
[10] = Nootkatone 0.25% in ethanol on filter paper, 72 hours post introduction
[11] = Nootkatone 0.5% in ethanol on filter paper, 30 minutes post introduction
[12] = Nootkatone 0.5% in ethanol on filter paper, 1 hour post introduction
[13] = Nootkatone 0.5% in ethanol on filter paper, 4 hours post introduction
[14] = Nootkatone 0.5% in ethanol on filter paper, 8 hours post introduction
[15] = Nootkatone 0.5% in ethanol on filter paper, 24 hours post introduction
[16] = Nootkatone 0.5% in ethanol on filter paper, 48 hours post introduction
[17] = Nootkatone 0.5% in ethanol on filter paper, 72 hours post introduction
[18] = Nootkatone 1% in ethanol on filter paper, 30 minutes post introduction
[19] = Nootkatone 1% in ethanol on filter paper, 1 hour post introduction
[20] = Nootkatone 1% in ethanol on filter paper, 4 hours post introduction
[21] = Nootkatone 1% in ethanol on filter paper, 8 hours post introduction
[22] = Nootkatone 1% in ethanol on filter paper, 24 hours post introduction
[23] = Nootkatone 1% in ethanol on filter paper, 48 hours post introduction
[24] = Nootkatone 1% in ethanol on filter paper, 72 hours post introduction

SMILES: C=C(C)[C@@H]1CCC2=CC(=O)C[C@@H](C)[C@]2(C)C1 [Nootkatone, nootkatone]
- Time required for greater than 90% killing [1]: 24 h
- Means Affected ([1]; 30 minutes post introduction): 100.0%
- Means Dead ([1]; 30 minutes post introduction): 0.0%
- Means KD ([1]; 30 minutes post introduction): 100.0%
- Means Affected ([1]; 1 hour post introduction): 100.0%
- Means Dead ([1]; 1 hour post introduction): 1.8%
- Means KD ([1]; 1 hour post introduction): 98.2%
- Means Affected ([1]; 4 hours post introduction): 100.0%
- Means Dead ([1]; 4 hours post introduction): 78.7%
- Means KD ([1]; 4 hours post introduction): 21.3%
- Means Affected ([1]; 24 hours post introduction): 100.0%
- Means Dead ([1]; 24 hours post introduction): 100%
- Means KD ([1]; 24 hours post introduction): 0.0%
- Means Dead ([1]; 24 hours post introduction, listed as nootkatone): 100%
- Means Affected [2, 4]: 17.8%
- Means Dead [2, 4]: 17.8%
- Means KD [2, 4]: 0.0%
- Means Affected [2, 5]: 20.0%
- Means Dead [2, 5]: 20.0%
- Means KD [2, 5]: 0.0%
- Means Affected [2, 6]: 20.0%
- Means Dead [2, 6]: 20.0%
- Means KD [2, 6]: 0.0%
- Means Affected [2, 7]: 17.8%
- Means Dead [2, 7]: 15.6%
- Means KD [2, 7]: 2.2%
- Means Affected [2, 8]: 17.8%
- Means Dead [2, 8]: 13.3%
- Means KD [2, 8]: 4.4%
- Means Affected [2, 9]: 17.6%
- Means Dead [2, 9]: 15.6%
- Means KD [2, 9]: 2.0%
- Means Affected [2, 10]: 26.0%
- Means Dead [2, 10]: 17.6%
- Means KD [2, 10]: 8.4%
- Means Affected [2, 11]: 0.0%
- Means Dead [2, 11]: 0.0%
- Means KD [2, 11]: 0.0%
- Means Affected [2, 12]: 0.0%
- Means Dead [2, 12]: 0.0%
- Means KD [2, 12]: 0.0%
- Means Affected [2, 13]: 5.3%
- Means Dead [2, 13]: 0.0%
- Means KD [2, 13]: 5.3%
- Means Affected [2, 14]: 29.9%
- Means Dead [2, 14]: 0.0%
- Means KD [2, 14]: 29.9%
- Means Affected [2, 15]: 83.1%
- Means Dead [2, 15]: 22.5%
- Means KD [2, 15]: 60.6%
- Means Affected [2, 16]: 87.1%
- Means Dead [2, 16]: 72.0%
- Means KD [2, 16]: 15.1%
- Means Affected [2, 17]: 100.0%
- Means Dead [2, 17]: 92% and 92.5%
- Means KD [2, 17]: 7.5%
- Means Affected [2, 18]: 0.0%
- Means Dead [2, 18]: 0.0%
- Means KD [2, 18]: 0.0%
- Means Affected [2, 19]: 1.8%
- Means Dead [2, 19]: 0.0%
- Means KD [2, 19]: 1.8%
- Means Affected [2, 20]: 46.9%
- Means Dead [2, 20]: 0.0%
- Means KD [2, 20]: 46.9%
- Means Affected [2, 21]: 80.4%
- Means Dead [2, 21]: 0.0%
- Means KD [2, 21]: 80.4%
- Means Affected [2, 22]: 84.0%
- Means Dead [2, 22]: 65.5%
- Means KD [2, 22]: 18.5%
- Means Affected [2, 23]: 90.0%
- Means Dead [2, 23]: 80.4%
- Means KD [2, 23]: 9.6%
- Means Affected [2, 24]: 94.0%
- Means Dead [2, 24]: 92%
- Means KD [2, 24]: 2.0%
- Means Affected [3, 4]: 24.0%
- Means Dead [3, 4]: 0.0%
- Means KD [3, 4]: 24.0%
- Means Affected [3, 5]: 22.0%
- Means Dead [3, 5]: 0.0%
- Means KD [3, 5]: 22.0%
- Means Affected [3, 6]: 32.2%
- Means Dead [3, 6]: 0.0%
- Means KD [3, 6]: 32.2%
- Means Affected [3, 7]: 18.0%
- Means Dead [3, 7]: 0.0%
- Means KD [3, 7]: 18.0%
- Means Affected [3, 8]: 26.2%
- Means Dead [3, 8]: 12.2%
- Means KD [3, 8]: 14.0%
- Means Affected [3, 9]: 75.6%
- Means Dead [3, 9]: 61.3%
- Means KD [3, 9]: 14.2%
- Means Affected [3, 10]: 76.0%
- Means Dead [3, 10]: 74.0%
- Means KD [3, 10]: 2.0%
- Means Affected [3, 11]: 0.0%
- Means Dead [3, 11]: 0.0%
- Means KD [3, 11]: 0.0%
- Means Affected [3, 12]: 2.5%
- Means Dead [3, 12]: 0.0%
- Means KD [3, 12]: 2.5%
- Means Affected [3, 13]: 4.0%
- Means Dead [3, 13]: 0.0%
- Means KD [3, 13]: 4.0%
- Means Affected [3, 14]: 4.0%
- Means Dead [3, 14]: 0.0%
- Means KD [3, 14]: 4.0%
- Means Affected [3, 15]: 29.0%
- Means Dead [3, 15]: 10.5%
- Means KD [3, 15]: 18.5%
- Means Affected [3, 16]: 72.0%
- Means Dead [3, 16]: 49.0%
- Means KD [3, 16]: 23.0%
- Means Affected [3, 17]: 82.0%
- Means Dead [3, 17]: 82%
- Means KD [3, 17]: 0.0%
- Means Affected [3, 18]: 2.2%
- Means Dead [3, 18]: 0.0%
- Means KD [3, 18]: 2.2%
- Means Affected [3, 19]: 52.2%
- Means Dead [3, 19]: 0.0%
- Means KD [3, 19]: 52.2%
- Means Affected [3, 20]: 83.7%
- Means Dead [3, 20]: 0.0%
- Means KD [3, 20]: 83.7%
- Means Affected [3, 21]: 92.0%
- Means Dead [3, 21]: 13.1%
- Means KD [3, 21]: 78.9%
- Means Affected [3, 22]: 100.0%
- Means Dead [3, 22]: 97.8%
- Means KD [3, 22]: 2.2%
- Means Affected [3, 23]: 100.0%
- Means Dead [3, 23]: 100.0%
- Means KD [3, 23]: 0.0%
- Means Affected [3, 24]: 100.0%
- Means Dead [3, 24]: 100%
- Means KD [3, 24]: 0.0%
